This note sets out measurements from US20140094446A1, “Cyclic Amino Acids for the Treatment of Pain” (Therexcell Pharma Inc., priority 2008, published 2014).

In data set [1] the test system is Neurons of the ventrobasal nuclei (thalamocortical neurons). Nature of the data set: Current- and voltage-clamp recording of thalamic neurons in in vitro slice preparations. The note with it: for equilibrium potential for the drug (intersection of drug and control I-V curves): voltage clamp, vs aCSF control curve.
Data set [2] deals with formalin foot mice. Kind of data set: Formalin foot acute and chronic peripheral pain model, intrathecal application.
Data set [3] concerns formalin foot mice. Kind of data set: Formalin foot acute and chronic peripheral pain model, subcutaneous injection, up and down method. The format is in vivo. The note with it: Mus musculus, sc; subcutaneously, 5 minutes prior to formalin; up and down method of Dixon and Mood; block = 60% decrease of cumulated licking; read-out: ED50 for the reduction of paw licking by 60%. The protocol:
This model involves pre-treatment with the test compound and injection of formalin (5% in 20 microliters) into the right hindpaw of mice. ACBC was injected subcutaneously 5 minutes prior to formalin injection. […] The up and down method of Dixon and Mood was used to establish the ED50.

Another data set relates to mice. Nature of the data set: Sedation observed during the formalin foot test, intrathecal application. On the procedure:
At the same time as the analgesia was accessed, the sedation effects of ACBC were determined in the acute and chronic peripheral pain formalin foot model. […] The mice were monitored for 40 min for sedation. aCSF and morphine controls were also tested. The presence or absence of sedation was determined by an observer blinded to the treatment based on degree of spontaneous activity, posture and response to normal stimuli.

Setting [4] is: ACBC 1 μM, normalized to control 5 minutes prior to drug application, single neuron.
The mark [5] stands for this setting: ACBC 5 μL of 250 μM 5 minutes before formalin 5% in 20 μL hindpaw, N=5, P<0.05 vs control.

“Also recorded” adds a separate entry of the source. Marks after values point to notes of the source that are not given here.

Usually ED50 stands for the midpoint of the dose-response relation. On to `NC1(C(=O)O)CCC1` [ACBC, 1-amino-cyclobutane-1-carboxylic acid], for which, in data set [1] (ACBC 1 μM), the “slope of the I-V curve” value is reported as “increased the slope of the I-V curve”; the “equilibrium potential for the drug (intersection of drug and control I-V curves)” value was −92 mV. Moreover, the “holding current 20 minutes after application” value in data set [1] (ACBC 1 μM, 3 min application, voltage-clamped at −60 mV, control 33 pA) worked out at 153 pA. In addition, in data set [1] (setting [4]), the “Input resistance (Ri)” value is on record as “increase in membrane input resistance; also recorded: decreased” and the “Membrane potential (Vm)” value was “decreased”. Further, the “tonic firing evoked by current pulse injection” value in data set [1] (ACBC 1 μM, ventrobasal thalamus, holding potential −60 mV) is “depressed action potential firing; also recorded: depressed tonic firing”. In addition, the “persistence of induced outward current” value in data set [1] (voltage clamped neurons) is reported as “greater than 60 minutes”. Further, in the data set on formalin foot mice [2] (setting [5]), the “phase I licking (early phase, acute pain)” value is “significantly reduced; also recorded: greatly reduces” and the “phase II licking (late phase, chronic pain)” value was “significantly reduced; also recorded: greatly reduces”. Also, in the data set on formalin foot mice [2] (ACBC 5 μL of 250 μM, monitored 40 minutes, p<0.05), the cumulative paw licking result is given as “significantly reduced”. Also, in the data set on formalin foot mice [2] (formalin foot test), the “analgesia compared with morphine, acute and chronic phases” value was “equal to that produced by morphine”. Further, the ED50 with formalin foot mice [3] turned out to be 94 mg/kg. In addition, in the data set with mice (mouse, in vivo), the behavioral toxicity result was “no observed behavioral toxicity”; the “sedation / gross appearance and behavior (in words)” value is on record as “No sedation occurred”. In the data set with mice (mouse, in vivo, 40 min), the “Number of mice with sedation” value is listed as 0*.
Consider `NCC(=O)O` [Glycine, reference compound], for which, in data set [1] (Glycine 150 μM), the “slope of the I-V curve” value is “increased the slope of the I-V curve”; the “equilibrium potential for the drug (intersection of drug and control I-V curves)” value is reported as −53 mV.
Consider `CN1CC[C@]23c4c5ccc(O)c4O[C@H]2[C@@H](O)C=C[C@H]3[C@H]1C5` [Morphine, reference compound], for which, in the data set on formalin foot mice [2] (setting [5]), the “phase I licking (early phase, acute pain)” value is on record as “Morphine <control”. For the same molecule, the “sedation / gross appearance and behavior (in words)” value in the data set with mice (intrathecal, acute and chronic phase of formalin foot test) was “nearly immobile”. Also, the “Number of mice with sedation” value in the data set with mice (of 5 mice, intrathecal (ACBC 5 μL of 250 μM), monitored 40 min, blinded observer) is given as 5.
